Measurements from patent publication US7718190B2, “Self forming, thermodynamically stable liposomes and their applications” (priority 2000, dated 2010).

Tests used:
[1] = Spontaneous liposome formation of single lipids mixed with aqueous solution; format: physicochemical
Procedure: Lipids were tested at 2 weight percent in aqueous solution. Note that GDL means glycerol dilaurate, GDO means glycerol dioleate, GDM means glycerol dimyristate, GDP means glycerol dipalmitate, and GDS means glycerol distearate. For each lipid, the number after “PEG” indicates the numbers of C2H4O subunits in the PEG chain. The unsaturated dioleate lipids have similar packing parameters to the saturated dimyristate lipids.
Single lipids were tested for their ability to spontaneously form liposomes when mixed with an aqueous solution. PEG-12 GDO was obtained from Global 7 (New Jersey). All other lipids were synthesized for the experiment. For each experiment, water and lipid were separately equilibrated at the appropriate temperature. Two weight percent lipid was added to the aqueous solution, and the solution was analyzed for the presence of liposomes by optical light microscopy, cryo TEM, freeze fracture TEM, or hot stage microscopy.

[2] = Dissolution of compounds in PEG-12 Glyceryl Dioleate; format: physicochemical; conditions: for Dissolution in PEG-12 Glyceryl Dioleate (observation): before addition of water
Procedure: It will be appreciated that, while liposomes form spontaneously at the temperature of formation, cooling of liposomes after formation results in liposomes in trapped kinetic states. To minimize distortions in liposome structure upon such cooling, sterols such as cholesterol may be mixed with the lipid before liposome formation. It has been observed that cholesterol may be dissolved in PEG-12 GDO at up to about 10 percent by weight.
Methotrexate (Sigma) was dissolved in PEG-12 Glyceryl Dioleate and gently mixed for about 5 minutes. […] Deionized water was slowly added to the solution and gently mixed. The resultant mixture was a yellow, opaque solution.
Tretinoin (all-trans retinoic acid), 6 mg, was dissolved in 500 ul of PEG-12 Glyceryl Dioleate. […] Distilled water, 4.5 ml, was added to the mixture and gently mixed. This yielded a concentration of […]. […] This solution can easily be incorporated into a cream, gel or lotion dosage form.

PEG-12 Glyceryl Dioleate [PEG-12 GDO]
Spontaneous Liposomes at 20° C. ([1]; 2 weight percent lipid in aqueous solution, 20° C.): YES | Spontaneous Liposomes at 37° C. ([1]; 2 weight percent lipid in aqueous solution, 37° C.): YES | Spontaneous Liposomes at 60° C. ([1]; 2 weight percent lipid in aqueous solution, 60° C.): YES | Spontaneous liposome formation ([1]; all temperatures tested (20, 37, 60° C.)): spontaneously forms liposomes at all temperatures tested

CC(C)CCC[C@@H](C)[C@H]1CC[C@H]2[C@@H]3CC=C4C[C@@H](O)CC[C@]4(C)[C@H]3CC[C@]12C [cholesterol]
Amount dissolved in PEG-12 GDO ([2]; in PEG-12 GDO): up to 10 percent by weight

CN(Cc1cnc2nc(N)nc(N)c2n1)c1ccc(C(=O)N[C@@H](CCC(=O)O)C(=O)O)cc1 [Methotrexate]
Dissolution in PEG-12 Glyceryl Dioleate (observation) [2]: clear solution

CC1=C(/C=C/C(C)=C/C=C/C(C)=C/C(=O)O)C(C)(C)CCC1 [Tretinoin]
Dissolution in PEG-12 Glyceryl Dioleate (observation) [2]: Dissolution was complete
